Source: the supplement of paper PMC10307832

Compound: CCn1c(-c2nonc2N)nc2c(C#CC(C)(C)O)ncc(OC[C@H]3CCCNC3)c21 + CS(=O)(=O)N1CCN(Cc2cc3nc(-c4cccc5[nH]ncc45)nc(N4CCOCC4)c3s2)CC1 [Pictilisib] (partner 1 µM)
Experiment: relative viability (nuclei count vs DMSO), 5 days (fraction); higher = more cells survive
Conditions: first compound 0.01 µM
Procedure, shortened: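 Relative viability equals treated-well nuclei counts divided by vehicle-well nuclei counts. Counts came from 4× images of lung cancer cell lines grown in 1536-well plates for 5 days after pin-tool dosing on the day after seeding. Dosing used one drug alone or a fixed anchor-drug dose plus five library-drug doses (not always all listed) in √10 steps, and values are medians of duplicate plates.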

| Cell Line | relative viability |
| --- | --- |
| NCI-H727 | 0.441 |
| NCI-H1650 | 0.531 |
| EBC-1 | 0.41 |
| NCI-H1703 | 0.228 |
| NCI-H1993 | 1.03 |
| SW 1573 | 0.432 |
| NCI-H838 | 0.496 |
| LCLC-103H | 0.591 |
| NCI-H520 | 0.332 |
| NCI-H2126 | 0.548 |
| EMC-BAC-2 | 0.563 |
| NCI-H2085 | 0.436 |
| Calu-6 | 0.886 |
| HCC-366 | 0.235 |
| NCI-H1666 | 0.533 |
| NCI-H596 | 0.398 |
| LK-2 | 0.509 |
| NCI-H2087 | 0.823 |
| SK-MES-1 | 0.399 |

| Cell Line | relative viability |
| --- | --- |
| H3255 | 0.457 |
| COR-L23 | 0.794 |
| COR-L 105 | 0.428 |
| IA-LM | 0.355 |
| LOU-NH91 | 0.547 |
| ChaGo-K-1 | 0.824 |
| NCI-H2170 | 0.301 |
| NCI-H2405 | 0.407 |
| HOP-62 | 0.688 |
| HCC-44 | 0.613 |
| A549 | 0.505 |
| NCI-H2009 | 0.89 |
| NCI-H661 | 0.368 |
| SK-LU-1 | 0.64 |
| NCI-H1299 | 0.817 |
| CAL-12T | 0.327 |
| NCI-H2228 | 0.295 |
| NCI-H2023 | 0.214 |
| NCI-H1563 | 0.689 |

Same assay, conditions: first compound 0.03162 µM

| Cell Line | relative viability |
| --- | --- |
| NCI-H727 | 0.355 |
| NCI-H1650 | 0.602 |
| EBC-1 | 0.386 |
| NCI-H1703 | 0.254 |
| NCI-H1993 | 0.735 |
| SW 1573 | 0.395 |
| NCI-H838 | 0.44 |
| LCLC-103H | 0.59 |
| NCI-H520 | 0.345 |
| NCI-H2126 | 0.496 |
| EMC-BAC-2 | 0.51 |
| NCI-H2085 | 0.437 |
| Calu-6 | 0.973 |
| HCC-366 | 0.214 |
| NCI-H1666 | 0.395 |
| NCI-H596 | 0.344 |
| LK-2 | 0.577 |
| NCI-H2087 | 0.843 |
| SK-MES-1 | 0.351 |

| Cell Line | relative viability |
| --- | --- |
| H3255 | 0.526 |
| COR-L23 | 0.759 |
| COR-L 105 | 0.345 |
| IA-LM | 0.316 |
| LOU-NH91 | 0.501 |
| ChaGo-K-1 | 0.601 |
| NCI-H2170 | 0.296 |
| NCI-H2405 | 0.492 |
| HOP-62 | 0.75 |
| HCC-44 | 0.562 |
| A549 | 0.536 |
| NCI-H2009 | 0.855 |
| NCI-H661 | 0.564 |
| SK-LU-1 | 0.715 |
| NCI-H1299 | 0.954 |
| CAL-12T | 0.374 |
| NCI-H2228 | 0.386 |
| NCI-H2023 | 0.269 |
| NCI-H1563 | 0.618 |

Same assay, conditions: first compound 0.1 µM

| Cell Line | relative viability |
| --- | --- |
| NCI-H727 | 0.275 |
| NCI-H1650 | 0.441 |
| EBC-1 | 0.32 |
| NCI-H1703 | 0.226 |
| NCI-H1993 | 0.887 |
| SW 1573 | 0.453 |
| NCI-H838 | 0.536 |
| LCLC-103H | 0.527 |
| NCI-H520 | 0.249 |
| NCI-H2126 | 0.494 |
| EMC-BAC-2 | 0.497 |
| NCI-H2085 | 0.373 |
| Calu-6 | 0.946 |
| HCC-366 | 0.12 |
| NCI-H1666 | 0.543 |
| NCI-H596 | 0.366 |
| LK-2 | 0.503 |
| NCI-H2087 | 0.805 |
| SK-MES-1 | 0.363 |

| Cell Line | relative viability |
| --- | --- |
| H3255 | 0.421 |
| COR-L23 | 0.727 |
| COR-L 105 | 0.333 |
| IA-LM | 0.276 |
| LOU-NH91 | 0.483 |
| ChaGo-K-1 | 0.7 |
| NCI-H2170 | 0.342 |
| HOP-62 | 0.703 |
| HCC-44 | 0.477 |
| A549 | 0.471 |
| NCI-H2009 | 0.745 |
| NCI-H661 | 0.299 |
| SK-LU-1 | 0.498 |
| NCI-H1299 | 0.773 |
| CAL-12T | 0.351 |
| NCI-H2228 | 0.347 |
| NCI-H2023 | 0.207 |
| NCI-H1563 | 0.686 |

Same assay, conditions: first compound 0.3162 µM

| Cell Line | relative viability |
| --- | --- |
| NCI-H727 | 0.43 |
| NCI-H1650 | 0.586 |
| EBC-1 | 0.343 |
| NCI-H1703 | 0.208 |
| NCI-H1993 | 0.866 |
| SW 1573 | 0.447 |
| NCI-H838 | 0.499 |
| LCLC-103H | 0.622 |
| NCI-H520 | 0.241 |
| NCI-H2126 | 0.442 |
| EMC-BAC-2 | 0.493 |
| NCI-H2085 | 0.404 |
| Calu-6 | 0.942 |
| HCC-366 | 0.131 |
| NCI-H1666 | 0.408 |
| NCI-H596 | 0.377 |
| LK-2 | 0.589 |
| NCI-H2087 | 0.891 |
| SK-MES-1 | 0.339 |

| Cell Line | relative viability |
| --- | --- |
| H3255 | 0.465 |
| COR-L23 | 0.705 |
| COR-L 105 | 0.549 |
| IA-LM | 0.26 |
| LOU-NH91 | 0.504 |
| ChaGo-K-1 | 0.756 |
| NCI-H2170 | 0.312 |
| NCI-H2405 | 0.445 |
| HOP-62 | 0.843 |
| HCC-44 | 0.679 |
| A549 | 0.334 |
| NCI-H2009 | 0.798 |
| NCI-H661 | 0.385 |
| SK-LU-1 | 0.575 |
| NCI-H1299 | 0.76 |
| CAL-12T | 0.306 |
| NCI-H2228 | 0.216 |
| NCI-H2023 | 0.196 |
| NCI-H1563 | 0.615 |

Same assay, conditions: first compound 1 µM

| Cell Line | relative viability |
| --- | --- |
| NCI-H727 | 0.315 |
| NCI-H1650 | 0.562 |
| EBC-1 | 0.262 |
| NCI-H1703 | 0.224 |
| NCI-H1993 | 0.887 |
| SW 1573 | 0.365 |
| NCI-H838 | 0.553 |
| LCLC-103H | 0.625 |
